Counter-ions that a name gives are not always drawn.
How the values were obtained:
[1] = biological target: T1, MC1R (Homo sapiens, UniProt Q01726); assay: Binding affinity, membranes of CHO-K1 cell line expressing human recombinant MC1R; set-up: expressed in transfected cells; host or cells: CHO-K1 (membranes); conditions: 25 mM HEPES-KOH buffer pH 7.0
Experimental: In a 96-well cell culture plate, the cell line membrane and 25 mM HEPES-KOH adsorption buffer (pH 7.0) containing the MCR agonist diluted at each step concentration were added, and the reaction was carried out.
Target sequence in this assay (Q01726 whole entry): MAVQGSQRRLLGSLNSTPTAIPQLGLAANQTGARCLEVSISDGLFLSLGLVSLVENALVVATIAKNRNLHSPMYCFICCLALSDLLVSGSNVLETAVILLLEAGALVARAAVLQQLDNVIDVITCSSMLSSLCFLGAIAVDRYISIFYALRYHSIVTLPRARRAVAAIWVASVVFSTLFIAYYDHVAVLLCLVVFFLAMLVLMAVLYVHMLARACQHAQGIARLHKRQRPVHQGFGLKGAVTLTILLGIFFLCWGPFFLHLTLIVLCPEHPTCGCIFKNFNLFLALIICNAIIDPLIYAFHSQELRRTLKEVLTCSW

[2] = biological target: T2, MC4R (Homo sapiens, UniProt P32245); assay: Pathhunter eXpress β-arrestin assay (U2OS cell line), MC4R; assay type: cell-based; set-up: expressed in transfected cells; host or cells: U2OS (Pathhunter eXpress β-arrestin cell line)
Description: (§1) A Pathhunter eXpress β-arrestin cell line (U2OS cell line) in which Prolink (PK)-tagged MC1R and MC4R, and enzyme acceptor (EA)-tagged β-arrestin were expressed together was established. When the MCR-PK portion of this cell line is activated, β-arrestin-EA is mobilized, and enzyme acceptor (EA) and Prolink (PK), which are the β-galactosidase enzyme fragments, interact. The activated enzyme hydrolyzes the substrate by β-galactosidase activity to produce a chemiluminescent signal, so that the activity can be measured. After the Pathhunter eXpress β-arrestin cell line (U2OS cell line) was incubated, the cells were inoculated into each well of the cell culture plate and incubated for 48 hours in a 37° C. incubator in the presence of 5% CO2. After the incubation, 5 μL of the sample diluted 5 times with buffer was added, the vehicle concentration was set to 1%, and the MC4R agonist compound diluted at each step concentration was added, followed by reaction at 37° C. for 90 minutes. The activity (%) of each agonist compound is expressed as 100%×(average RLU value of sample−average RLU value of vehicle control)/(average maximum value of control ligand−average RLU value of vehicle control), and the value was analyzed by CBIS data analysis suite (ChemInnovation, CA).
Target sequence in this assay (P32245 whole entry, the tested form may be a part): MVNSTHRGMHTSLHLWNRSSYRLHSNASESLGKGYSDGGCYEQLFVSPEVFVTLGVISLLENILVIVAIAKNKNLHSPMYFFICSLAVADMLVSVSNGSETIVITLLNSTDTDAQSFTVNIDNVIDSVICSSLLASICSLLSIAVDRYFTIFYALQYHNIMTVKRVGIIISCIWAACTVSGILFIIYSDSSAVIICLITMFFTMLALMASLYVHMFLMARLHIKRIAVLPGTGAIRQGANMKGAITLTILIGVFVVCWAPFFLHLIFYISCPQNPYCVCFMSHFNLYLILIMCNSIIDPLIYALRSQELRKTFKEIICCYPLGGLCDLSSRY
Target sequence in this assay (P32121 whole entry partner, the tested form may be a part): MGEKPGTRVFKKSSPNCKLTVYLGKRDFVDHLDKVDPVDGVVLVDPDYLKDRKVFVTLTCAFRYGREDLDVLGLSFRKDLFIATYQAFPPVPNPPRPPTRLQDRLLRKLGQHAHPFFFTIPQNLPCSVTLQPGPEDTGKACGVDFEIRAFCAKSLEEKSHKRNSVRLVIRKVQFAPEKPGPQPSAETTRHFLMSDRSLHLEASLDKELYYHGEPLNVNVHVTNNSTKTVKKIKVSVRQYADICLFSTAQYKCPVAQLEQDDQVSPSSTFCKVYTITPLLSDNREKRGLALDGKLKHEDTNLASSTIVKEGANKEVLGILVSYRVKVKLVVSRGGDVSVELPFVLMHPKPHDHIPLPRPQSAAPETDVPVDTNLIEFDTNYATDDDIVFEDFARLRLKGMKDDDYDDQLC

[3] = biological target: T3, melanocortin-1 receptor (MC1R) (Homo sapiens, UniProt Q01726); assay: Luciferase assay (CRE-LUC), HEK MC1R-Luc cells; assay type: cell-based; conditions: luminescence relative to 10 μM NDP-α-MSH
T3 construct: expressed in transfected cells
T3 sequence (Q01726 whole entry): as the sequence (Q01726 whole entry) above
Experimental: In order to measure the agonist ability for melanocortin-1 receptor (MC1R) and melanocortin-4 receptor (MC4R), a cell line that permanently expresses MC1R, MC4R and the luciferase gene (CRE-LUC) under the control of CRE (cAMP response element) was established.
After a mammalian cell expression vector (pCDNA3 (Neo)) (Invitrogen) containing the MC1R and MC4R genes was prepared, human embryonic kidney (HEK) cell lines were transformed by using Lipofectamine 2000 (Invitrogen) together with a vector (pCRE-Luc)(Stratagen) expressing a luciferase gene (CRE-LUC) under the control of a cAMP response element (CRE). […] Each well was treated with 50 μL of a Bright-Glo luciferase reagent (Promega) and left at room temperature for 15 minutes, and then the luminescence of each well was measured by using a luminometer (Victor).
HEK MC1R-Luc cells and HEK MC4R-Luc cells were added to each well of a 96-well luminometer cell culture plate (Costar) to a size of 2.5×10^4 cells in 100 μL of a culture medium and then incubated in a 37° C. incubator in the presence of 6% CO2 for 18 hours. […] Each well was treated with 50 μL of a Bright-Glo luciferase reagent (Promega) and left at room temperature for five minutes, and then the luminescence of each well was measured by using a luminometer (Victor). […] The measurements were measured using statistical software (Prizm).

[4] = system: skin and skin hair pigmentation; assay: Skin pigmentation in repeated toxicity test in monkeys; assay type: in vivo; conditions: repeatedly administered for 2 weeks, FIG. 2
Experimental: In order to confirm the possibility of occurrence of skin pigmentation—which is an off-target effect of MC4R agonist, pigmentation patterns in the skin and skin hair were measured in a repeated toxicity test in monkeys, and the results are represented in FIG. 2.

[5] = biological target: T1, MC1R; assay: cAMP Hunter Gs-coupled cAMP assay (CHO-K1 cell line), MC1R; assay type: cell-based; set-up: expressed in transfected cells; host or cells: CHO-K1 (cAMP Hunter Gs-coupled cell line); conditions: 30 minutes at 37° C.
Experimental: (§2) After cAMP Hunter Gs-coupled cell lines (CHO-K1 cell line) in which each of MC1R and MC4R was overexpressed were established so that the increase in the cAMP level in cells due to agonist reaction was measurable, the cells were inoculated into each well of a white cell culture plate and incubated for 24 hours in a 37° C. incubator in the presence of 5% CO2. After the incubation, the medium was removed, and 15 μL of a 2:1 HBBS/10 mM HEPES:cAMP XS+Ab reagent was added. After 5 μL of the sample diluted 4 times with buffer was added, the vehicle concentration was set to 1%, and the MC4R agonist compound diluted at each step concentration was added, followed by reaction at 37° C. for 30 minutes. The activity (%) of each agonist compound is expressed as 100%×(average RLU value of sample−average RLU value of vehicle control)/(average RLU value of max control−average RLU value of vehicle control), and the value was analyzed by CBIS data analysis suite (ChemInnovation, CA).
Target sequence in this assay (Q01726 whole entry): as above

[6] = biological target: T2, MC4R; assay: cAMP Hunter Gs-coupled cAMP assay (CHO-K1 cell line), MC4R; assay type: cell-based; set-up: expressed in transfected cells; host or cells: CHO-K1 (cAMP Hunter Gs-coupled cell line)
Experimental: as §2
Target sequence in this assay (P32245 whole entry, the tested form may be a part): as the sequence (P32245 whole entry, the tested form may be a part) above

[7] = biological target: T1, MC1R; assay: Pathhunter eXpress β-arrestin assay (U2OS cell line), MC1R; assay type: cell-based; set-up: expressed in transfected cells; host or cells: U2OS (Pathhunter eXpress β-arrestin cell line); conditions: 90 minutes at 37° C.
Description: as §1
Target sequence in this assay (Q01726 whole entry): as the sequence (Q01726 whole entry) above
Target sequence in this assay (P32121 whole entry partner): as the sequence (P32121 whole entry partner, the tested form may be a part) above

[8] = biological target: T2, MC4R; assay: Binding affinity, membranes of HEK-293 cell lines expressing MC4R; set-up: expressed in transfected cells
Experimental: After the CHO-K1 cell line expressing human recombinant MC1R and the HEK-293 cell lines expressing MC4R were established, membranes were collected from each cell line. In a 96-well cell culture plate, the cell line membrane and 25 mM HEPES-KOH adsorption buffer (pH 7.0) containing the MCR agonist diluted at each step concentration were added, and the reaction was carried out. EC50 was calculated as a concentration that induces 50% of the maximum binding that can be induced by each agonist, and the results are represented in Table 2.
Target sequence in this assay (P32245 whole entry, the tested form may be a part): as the sequence (P32245 whole entry, the tested form may be a part) above

[9] = biological target: T4, melanocortin-4 receptor (MC4R) (Homo sapiens, UniProt P32245); assay: Luciferase assay (CRE-LUC), HEK MC4R-Luc cells; assay type: cell-based
T4 construct: expressed in transfected cells
T4 sequence (P32245 whole entry): as the sequence (P32245 whole entry, the tested form may be a part) above

[10] = mouse, in vivo
Experimental: With respect to skin pigmentation—which is an off-target effect of MC4R agonist, the distribution and accumulation of the drug were evaluated by measuring the drug concentration in the skin and plasma after repeated administration in a db/db mouse model lacking leptin receptor.

[11] = system: skin pigmentation; conditions: reported, Clement et al., Nature Medicine, 2018; cited from earlier work
[12] = ratio of EC50 in MC1R to EC50 in MC4R

Row | SMILES | EC50 [1] | EC50 ([2]; U2OS cell line, 90 minutes at 37° C.) | Ratio MC1R/MC4R (β-Arrestin) [2, 12] | EC50 [3] | Pigmentation on the skin and skin hair [4] | EC50 [5] | EC50 ([6]; CHO-K1 cell line, 30 minutes at 37° C.) | Ratio MC1R/MC4R (cAMP) [6, 12] | EC50 [7] | EC50 ([8]; HEK-293 membranes, 25 mM HEPES-KOH buffer pH 7.0) | Ratio MC1R/MC4R (Binding) [8, 12] | EC50 ([9]; HEK MC4R-Luc cells, luminescence relative to 10 μM NDP-α-MSH) | Ratio MC1R/MC4R (Luciferase) [9, 12] | Accumulation of drug in the skin [10] | Skin pigmentation in clinical trials [11]
1 | CC(C)C(=O)N([C@H]1C[C@@H](C(=O)N2CCOCC2)N(C(=O)[C@@H]2CN(C(C)(C)C)C[C@H]2c2ccc(Cl)cc2)C1)[C@H]1CC[C@@H](C)CC1.Cl [Test Compound, N-((3S,5S)-1-((3S,4R)-1-(tert-butyl)-4-(4-chlorophenyl)pyrrolidine-3-carbonyl)-5-(morpholine-4-carbonyl)pyrrolidin-3-yl)-N-((1s,4R)-4-methylcyclohexyl)isobutyramide hydrochloride] | 310 nM | 5.14 nM | 37.98 | 2.5 nM | pigmentation did not appear on the skin and skin hair | 84.8 nM | 16.3 nM | 5.21 | 195 nM | 62 nM | 5.00 | 0.434 nM | 5.76 | did not relatively accumulate in the skin | –
2 | CC(=O)N[C@@H](CCCNC(=N)N)C(=O)N[C@H]1CSSC[C@@H](C(N)=O)NC(=O)[C@H](Cc2c[nH]c3ccccc23)NC(=O)[C@H](CCCNC(=N)N)NC(=O)[C@@H](Cc2ccccc2)NC(=O)[C@H](Cc2c[nH]cn2)NC(=O)[C@@H](C)NC1=O [setmelanotide, Ac-RC[dA]H[dF]RWC-NH2 (disulfide) (AcOH salt)] | – | – | – | – | – | – | – | – | – | – | – | – | – | – | show skin pigmentation

— patent US20240091235A1, “USE AS SELECTIVE AGONIST OF MELANOCORTIN-4 RECEPTOR” (priority 2020, published 2024)
